Test results from publication PMC6521598, “Identification of GLPG/ABBV-2737, a Novel Class of Corrector, Which Exerts Functional Synergy With Other CFTR Modulators” (Frontiers in Pharmacology, 2019).

Molecular target: F508del CFTR (Homo sapiens, UniProt P13569, DEL508-508)
Assay: CSE-HRP assay (cell surface expression horseradish peroxidase assay)
Type: cell-based
Set-up: University of North Carolina; host or cells: primary human bronchial epithelial cells, F508del/F508del donors
Conditions: 24 h treatment; for % F508del PM Expression vs control: VX809 rescue = 100%
Experimental: CFBE41o^- TetON cells expressing HRP tagged F508del-CFTR ([Veit et al., 2012]) were seeded at a density of 2000 cells per well in white 384-well plates (Greiner). Medium containing 500 ng/ml doxycycline was used to induce expression of the F508del-CFTR–HRP construct. After 3 days, cells were treated with corrector and/or potentiator compounds and transferred to an incubator at 33°C. On day 4, cells were washed five times with PBS containing Ca^2+ and Mg^2+ using a Bio-Tek plate washer and incubated with a chemiluminescent HRP substrate (SuperSignal West Pico Chemiluminescent Substrate, Thermo Scientific) for 15 min. Chemiluminescence was measured using an Envision plate reader (Perkin Elmer).
To discover novel correctors several high throughput screening campaigns were performed using cell based assays measuring plasma membrane expression of the F508del CFTR protein. The CSE-HRP system used CFBE41O-cells, a lung epithelial cell line, stably transfected with F508del CFTR tagged with HRP in the fourth extracellular loop ([Veit et al., 2014]). The CSE-MEM system, used U2OS cells, an osteosarcoma epithelial cell line, stably transfected with F508del CFTR tagged with a Pro-link moiety at the C-terminal and a plasma membrane located EA (enzyme acceptor) moiety. The latter cells were created by DiscoverX and the assay further optimized to allow robust evaluation in a high throughput manner.
For screening, cells were pre-incubated with compound for 24 h prior to read-out to allow sufficient time for de novo synthesis, and cellular trafficking of F508del-CFTR to reach steady state levels at the plasma membrane. A diverse set of 105,000 small molecules was screened in both cell assays in presence and absence of a fixed concentration (3 μM) of VX809. For the identification of suitable starting points we primarily focused on hits that increased the F508del CFTR surface expression under all conditions as exemplified by compound HIT1.

F508del CFTR, sequence (P13569 with tags, fused parts or gaps DEL508-508): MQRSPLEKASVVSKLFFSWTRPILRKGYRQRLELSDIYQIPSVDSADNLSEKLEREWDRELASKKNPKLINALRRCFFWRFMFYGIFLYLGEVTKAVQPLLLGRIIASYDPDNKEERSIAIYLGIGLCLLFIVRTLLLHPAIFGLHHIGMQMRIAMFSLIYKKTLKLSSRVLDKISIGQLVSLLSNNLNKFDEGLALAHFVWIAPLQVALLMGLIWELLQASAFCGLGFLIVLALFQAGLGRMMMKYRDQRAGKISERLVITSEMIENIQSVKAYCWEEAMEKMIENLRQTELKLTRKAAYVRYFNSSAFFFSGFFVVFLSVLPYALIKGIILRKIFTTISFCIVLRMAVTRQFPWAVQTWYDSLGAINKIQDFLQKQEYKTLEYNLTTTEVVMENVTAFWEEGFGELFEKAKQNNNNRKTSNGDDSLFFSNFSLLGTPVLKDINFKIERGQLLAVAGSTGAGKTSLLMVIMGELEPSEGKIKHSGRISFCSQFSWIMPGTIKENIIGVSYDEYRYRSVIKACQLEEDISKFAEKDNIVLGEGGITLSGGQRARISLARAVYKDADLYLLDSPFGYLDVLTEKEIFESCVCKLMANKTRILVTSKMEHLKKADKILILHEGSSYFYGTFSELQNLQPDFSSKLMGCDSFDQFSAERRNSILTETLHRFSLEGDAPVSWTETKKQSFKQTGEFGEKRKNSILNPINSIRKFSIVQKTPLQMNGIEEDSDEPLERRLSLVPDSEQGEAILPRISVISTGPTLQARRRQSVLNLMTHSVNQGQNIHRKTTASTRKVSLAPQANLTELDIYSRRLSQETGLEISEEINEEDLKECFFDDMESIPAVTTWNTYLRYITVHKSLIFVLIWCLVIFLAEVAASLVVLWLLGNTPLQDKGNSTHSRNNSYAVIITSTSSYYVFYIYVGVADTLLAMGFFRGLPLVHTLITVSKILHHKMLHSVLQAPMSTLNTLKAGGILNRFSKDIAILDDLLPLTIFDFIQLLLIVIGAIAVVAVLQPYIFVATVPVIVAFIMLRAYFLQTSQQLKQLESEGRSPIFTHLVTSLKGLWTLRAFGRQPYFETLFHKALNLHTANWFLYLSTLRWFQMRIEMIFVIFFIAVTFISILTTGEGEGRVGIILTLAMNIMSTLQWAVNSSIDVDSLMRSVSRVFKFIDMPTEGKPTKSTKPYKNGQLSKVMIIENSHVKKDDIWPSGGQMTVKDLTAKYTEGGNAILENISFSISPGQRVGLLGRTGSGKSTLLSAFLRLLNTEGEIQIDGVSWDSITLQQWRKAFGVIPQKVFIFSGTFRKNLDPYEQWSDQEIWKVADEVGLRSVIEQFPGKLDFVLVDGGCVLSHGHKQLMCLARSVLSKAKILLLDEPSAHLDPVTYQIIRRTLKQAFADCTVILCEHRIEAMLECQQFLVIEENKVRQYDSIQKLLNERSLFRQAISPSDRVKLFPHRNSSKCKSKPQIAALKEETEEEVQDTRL

% F508del PM Expression vs control (+ 3 μM VX809): 416%
EC50 (no co-corrector): 809 nM
% F508del PM Expression vs control (no co-corrector): 264%
Structure (SMILES): COC1CCN(C2CCN(c3cc(C(=O)NS(=O)(=O)N(C)C)nc4c3c(C3CCC3)nn4-c3ccc(F)cc3)CC2)CC1 [GLPG2737]
